The text below walks through data of ChEMBL document CHEMBL3616468, “Spirooxindole-derived morpholine-fused-1,2,3-triazoles: Design, synthesis, cytotoxicity and apoptosis inducing studies” (Eur J Med Chem, 2015).

Structures are written as SMILES. Active and inactive are the calls of the source. No cut-off for these calls is given here. Where only a bound is given, the exact number is not on record here.

The test system of one test is MCF7. Briefly: Antiproliferative activity against human MCF7 cells after 48 hrs by MTT assay. The test is classed as functional, cell-based. To be noted: MCF7, 48 h. On the technique in general: Formazan colour is commonly taken as a measure of viable cells.
The subject of the next test is HeLa. Nature of the test: Antiproliferative activity against human HeLa cells after 48 hrs by MTT assay. It counts as functional, cell-based.
Test [1] has as its system A549. Nature of the test: Antiproliferative activity against human A549 cells after 48 hrs by MTT assay. It counts as functional, cell-based. To be noted: A549, 48 h.
Another test has as its system DU-145. Briefly: Antiproliferative activity against human DU145 cells after 48 hrs by MTT assay. It counts as functional, cell-based. To be noted: DU-145, 48 h.
In test [2] the test system is A549. Nature of the test: Inhibition of cell migration in human A549 cells at cytotoxic IC50 level after 24 hrs by wound healing assay. The test is classed as functional.
Test [3] relates to A549. Briefly: Induction of morphological change in human A549 cells assessed as nucleus shrinkage at cytotoxic IC50 level after 48 hrs by phase contrast microscopic analysis. The test is classed as functional, cell-based.
Test [4] concerns A549. Nature of the test: Induction of apoptosis in human A549 cells assessed as extremely condensed chromatin at 0.5 uM after 24 hrs by acridine orange/ethidium bromide staining based fluorescence microscopic analysis. It counts as functional, cell-based.
Test [5] deals with A549. Briefly: Induction of cell cycle arrest in human A549 cells assessed as accumulation at G2/M phase at 1 uM after 24 hrs by propidium iodide staining based flow cytometry (reference value: 21.85%). The test is classed as functional. In general terms: Flow cytometry measures light scatter and fluorescence of single cells or particles in a stream.
Test [6] concerns A549. Briefly: Induction of morphological change in human A549 cells assessed as cell detachment at cytotoxic IC50 level after 48 hrs by phase contrast microscopic analysis. The test is classed as functional, cell-based.
In test [7] the test system is A549. Nature of the test: Induction of apoptosis in human A549 cells assessed as horseshoe shaped nuclei at cytotoxic IC50 level after 24 hrs by […] staining based confocal fluorescence microscopic analysis. It counts as functional, cell-based.
Test [8] relates to A549. Nature of the test: Induction of cell cycle arrest in human A549 cells assessed as accumulation at S phase at 1 uM after 24 hrs by propidium iodide staining based flow cytometry (reference value: 4.96%). The test is classed as functional.
Test [9] relates to A549. Briefly: Anticancer activity against human A549 cells assessed as decrease in viable cells at cytotoxic IC50 level after 48 hrs by phase contrast microscopic analysis. The test is classed as functional, cell-based.
Test [10] deals with A549. Briefly: Induction of cell cycle arrest in human A549 cells assessed as accumulation at G1 phase at 1 uM after 24 hrs by propidium iodide staining based flow cytometry (reference value: 72.27%). The test is classed as functional.
Test [11] deals with A549. Briefly: Induction of cell cycle arrest in human A549 cells assessed as accumulation at S phase at 2 uM after 24 hrs by propidium iodide staining based flow cytometry (reference value: 4.96%). The test is classed as functional.
Test [12] concerns A549. Nature of the test: Induction of cell cycle arrest in human A549 cells assessed as accumulation at G2/M phase at 2 uM after 24 hrs by propidium iodide staining based flow cytometry (reference value: 21.85%). The test is classed as functional.
Test [13] relates to A549. Briefly: Induction of apoptosis in human A549 cells assessed as fragmented nuclei at cytotoxic IC50 level after 24 hrs by […] staining based confocal fluorescence microscopic analysis. The test is classed as functional, cell-based.
The test system of test [14] is A549. Briefly: Induction of apoptosis in human A549 cells assessed as irregular distribution of chromatin at 1 uM after 24 hrs by acridine orange/ethidium bromide staining based fluorescence microscopic analysis. It counts as functional, cell-based.
Test [15] deals with A549. Nature of the test: Inhibition of cell migration in human A549 cells at cytotoxic IC50 level after 24 to 48 hrs by wound healing assay. The test is classed as functional.
Test [16] relates to A549. Briefly: Induction of apoptosis in human A549 cells assessed as cell membrane blebbing at 0.5 uM after 24 hrs by acridine orange/ethidium bromide staining based fluorescence microscopic analysis. It counts as functional.
Test [17] has as its system A549. Briefly: Inhibition of cell migration in human A549 cells at cytotoxic IC50 level after 48 hrs by wound healing assay. The test is classed as functional.
Test [18] concerns A549. Nature of the test: Induction of apoptosis in human A549 cells assessed as extremely condensed chromatin at 2 uM after 24 hrs by acridine orange/ethidium bromide staining based fluorescence microscopic analysis. It counts as functional, cell-based.
Test [19] relates to A549. Briefly: Induction of apoptosis in human A549 cells assessed as destructive fragmentation of nuclei at 1 uM after 24 hrs by acridine orange/ethidium bromide staining based fluorescence microscopic analysis. It counts as functional, cell-based.
The test system of test [20] is A549. Nature of the test: Induction of cell cycle arrest in human A549 cells assessed as accumulation at G1 phase at 2 uM after 24 hrs by propidium iodide staining based flow cytometry (reference value: 72.27%). It counts as functional.
The test system of test [21] is A549. Nature of the test: Induction of apoptosis in human A549 cells assessed as chromatin condensation at cytotoxic IC50 level after 24 hrs by […] staining based confocal fluorescence microscopic analysis. It counts as functional, cell-based.
Test [22] deals with A549. Nature of the test: Induction of apoptosis in human A549 cells assessed as increase in intracellular reactive oxygen species level at cytotoxic IC50 level after 24 hrs by DCFH-DA staining based spectrofluorometry relative to control. It counts as functional.
Test [23] relates to A549. Nature of the test: Induction of apoptosis in human A549 cells assessed as disruption of mitochondrial membrane potential at cytotoxic IC50 level after 24 hrs by rhodamine-123 staining based spectrofluorometry relative to control. The test is classed as functional.

One may read the IC50 as the concentration needed to halve the response being measured. Lower therefore signals inhibition by little substance. As for `N#Cc1ccc(CN2C(=O)C3(Cn4nncc4CO3)c3cc(Cl)ccc32)cc1` (configuration not stated), the IC50 in the test on MCF7 was determined as 10.2 µM; with HeLa, 22.3 µM; with A549 [1] it was 7.94 µM; in the test with DU-145 it was 28 µM.
Take `CCN1C(=O)C2(Cn3nncc3CO2)c2cc(F)ccc21` (configuration not stated): the 50% inhibitory concentration (IC50) in the test with MCF7, with HeLa, in the test on A549 [1] and with DU-145 was greater than 50 µM throughout.
Take `O=C1N(Cc2ccccc2)c2ccc(F)cc2C12Cn1nncc1CO2` (configuration not stated): the IC50 in the test on MCF7 was 35.9 µM; in the test on HeLa it was greater than 50 µM; in the test with A549 [1] it was 19.9 µM; in the test with DU-145, 27.5 µM.
In the same order, the values of `O=C1N(Cc2ccccc2)c2ccc(Br)cc2C12Cn1nncc1CO2` (configuration not stated) are 29.5 µM, 31.5 µM, 14.8 µM and 49 µM.
In the same order, the values of `CN1C(=O)C2(Cn3nncc3CO2)c2cc(Cl)ccc21` (configuration not stated) are 35.5 µM, greater than 50 µM, greater than 50 µM and greater than 50 µM.
As to `CN1C(=O)C2(Cn3nncc3CO2)c2cc(Br)ccc21` (configuration not stated), the IC50 in the test with MCF7, in the test with HeLa, with A549 [1] and with DU-145 was greater than 50 µM each time.
For `COc1cccc2c1C(=O)c1c(O)c3c(c(O)c1C2=O)C[C@@](O)(C(=O)CO)C[C@@H]3O[C@H]1C[C@H](N)[C@H](O)[C@H](C)O1` [DOXORUBICIN], the figures for the IC50 in the test on MCF7, in the test with HeLa and with DU-145 were 1.05 µM, 1.26 µM and 1.91 µM, respectively.
Turning to `N#Cc1ccc(CN2C(=O)C3(Cn4nncc4CO3)c3ccccc32)cc1` (configuration not stated), the IC50 was found to be 17.2 µM with MCF7, 21.4 µM with HeLa, 12.6 µM in the test on A549 [1] and 20.4 µM in the test with DU-145.
On the same counts, the results for `O=C1N(Cc2ccccc2)c2ccc(Cl)cc2C12Cn1nncc1CO2` (configuration not stated) are 16.5 µM, 15.1 µM, 12.9 µM and 33.3 µM.
Take `O=C1N(Cc2ccc(Br)cc2)c2ccc(Cl)cc2C12Cn1nncc1CO2` (configuration not stated): the concentration for half-maximal inhibition (IC50) in the test on MCF7 is 31.6 µM; with HeLa, greater than 50 µM; in the test with A549 [1], 23.4 µM; in the test with DU-145, greater than 50 µM.
For the compound `Cc1ccc2c(c1)C1(Cn3nncc3CO1)C(=O)N2C` (configuration not stated), the half-maximal inhibitory concentration (IC50) in the test on MCF7 is 9.66 µM; in the test on HeLa, 10.2 µM; in the test on A549 [1], 7.41 µM; in the test on DU-145, 24 µM.
As for `Cc1ccc2c(c1)C1(Cn3nncc3CO1)C(=O)N2Cc1ccccc1` (configuration not stated), the IC50 in the test on MCF7 worked out at 19.9 µM; with HeLa it was 18.2 µM; in the test on A549 [1], 14.5 µM; in the test with DU-145 it was 19.7 µM.
As to `CCN1C(=O)C2(Cn3nncc3CO2)c2ccccc21` (configuration not stated), the “inhibition (INH)” value in the test on A549 [2] came to 54.9%; in the test on A549 [15] it was 38.1%; in the test with A549 [17], 56.1%. Also, the half-inhibitory concentration (IC50) in the test with MCF7 turned out to be 8.87 µM; in the test on HeLa, 11.2 µM; with A549 [1] it was 1.87 µM; in the test with DU-145, 19.9 µM. Moreover, the result in the test on A549 [3], in the test on A549 [4], in the test on A549 [6], in the test on A549 [7], with A549 [9] and with A549 [13] was Active. For the same compound, the outcome with A549 [14], in the test with A549 [16], in the test on A549 [18], in the test with A549 [19] and in the test with A549 [21] was Active. Besides, the Activity in the test on A549 [5] was 19.77%; in the test with A549 [8] it was 15.63%; with A549 [10], 60.21%; in the test on A549 [11] it was 16.2%; in the test with A549 [12], 35.61%; in the test with A549 [20], 46.04%. The Activity in the test on A549 [23] was 48.2%. For the same compound, in the test with A549 [22], the “fold change (FC)” value came to 2.6.
Regarding `CCN1C(=O)C2(Cn3nncc3CO2)c2cc(Cl)ccc21` (configuration not stated), the half-maximal inhibitory concentration (IC50) with MCF7 is 28.8 µM; with HeLa, greater than 50 µM; in the test with A549 [1], 15.8 µM; with DU-145, 23.4 µM.
As for `O=C1N(Cc2ccccc2)c2ccccc2C12Cn1nncc1CO2` (configuration not stated), the IC50 was 17.8 µM in the test with MCF7, greater than 50 µM in the test with HeLa, 10.5 µM in the test with A549 [1] and greater than 50 µM in the test with DU-145.
For the compound `O=C1N(Cc2ccc(Br)cc2)c2ccccc2C12Cn1nncc1CO2` (configuration not stated), the IC50 with MCF7 turned out to be 13.5 µM; in the test on HeLa, 15.5 µM; in the test with A549 [1] it was 14.5 µM; in the test with DU-145, 26.3 µM.
Consider `O=c1[nH]cc(F)c(=O)[nH]1` [FLUOROURACIL], for which the IC50 worked out at 8.32 µM in the test on HeLa, 7.24 µM in the test on A549 [1] and 6.07 µM with DU-145.
Turning to `O=C1N(Cc2ccc(Br)cc2)c2ccc(F)cc2C12Cn1nncc1CO2` (configuration not stated), the half-inhibitory concentration (IC50) with MCF7 was 8.31 µM; with HeLa, 14.6 µM; in the test with A549 [1], 4.36 µM; in the test with DU-145 it was 37.1 µM.
In the same order, the values of `CN1C(=O)C2(Cn3nncc3CO2)c2cc(F)ccc21` (configuration not stated) are greater than 50 µM, greater than 50 µM, greater than 50 µM and greater than 50 µM.
Regarding `CCN1C(=O)C2(Cn3nncc3CO2)c2cc(Br)ccc21` (configuration not stated), the IC50 with MCF7, in the test on HeLa, with A549 [1] and with DU-145 was greater than 50 µM in each case.
In the case of `CN1C(=O)C2(Cn3nncc3CO2)c2ccccc21` (configuration not stated), the half-maximal inhibitory concentration (IC50) in the test on MCF7 is 27.7 µM; with HeLa, 48 µM; in the test with A549 [1] it was 20.1 µM; in the test on DU-145 it was greater than 50 µM.
As to `O=C1N(Cc2ccc(Br)cc2)c2ccc(Br)cc2C12Cn1nncc1CO2` (configuration not stated), the IC50 was determined as 6.29 µM with MCF7, 12 µM in the test on HeLa, 4.26 µM in the test on A549 [1] and 8.14 µM in the test on DU-145. Besides, the result in the test on A549 [3], in the test on A549 [6], in the test on A549 [7], in the test with A549 [9], in the test with A549 [13] and with A549 [21] was Active. In addition, the outcome in the test with A549 [23] was Active. Also, the “inhibition (INH)” value in the test on A549 [15] turned out to be 38.1%. In the test on A549 [22], the “fold change (FC)” value is given as 2.3.
